Laboratory results as given in patent US20240409585A1, “MACROCYCLIC IMMUNOMODULATORS” (priority 2021, published 2024).
Bridge positions count the residues as written; N and C are the ends. Square brackets hold non-standard residues; d marks the D form. Peptide text beside a SMILES is read from it. * marks the point of attachment. ξ: configuration not given here. Phe(4-COOH) = N[C@@H](Cc1ccc(C(=O)O)cc1)C(=O)O; Bip = N[C@@H](Cc1ccc(-c2ccccc2)cc1)C(=O)O; Phe(3-OMe) = COc1cccc(C[C@H](N)C(=O)O)c1; Phe(3-Me) = Cc1cccc(C[C@H](N)C(=O)O)c1; Val(3-OH) = CC(C)(O)[C@H](N)C(=O)O; aIle = CC[C@@H](C)[C@H](N)C(=O)O; 4Pal = N[C@@H](Cc1ccncc1)C(=O)O; Cha = N[C@@H](CC1CCCCC1)C(=O)O; Cit = NC(=O)NCCC[C@H](N)C(=O)O; Carboxymethyl = O=C(O)C*; NMeA = CN[C@@H](C)C(=O)O; Orn = NCCC[C@H](N)C(=O)O; Dab = NCC[C@H](N)C(=O)O; Dap = NC[C@H](N)C(=O)O; ξV = CC(C)C(N)C(=O)O

target: T1, PE-labeled human PD-L1-Ig binding to Jurkat cell line over-expressing human PD-1 (Jurkat-PD-1) (Homo sapiens, UniProt Q15116); assay: Jurkat-PD-1 Cell Binding High-Content Screening Assay (CBA): Method 1; settings: Jurkat-hPD-1 cells, PE-labeled PD-L1-Ig 20 nM final; read-out: Jurkat HPDL1 PD1 IC50 (uM) (Method 1)
T1 construct: expressed in transfected cells; host or cells: Jurkat
T1 sequence (Q15116 25-288): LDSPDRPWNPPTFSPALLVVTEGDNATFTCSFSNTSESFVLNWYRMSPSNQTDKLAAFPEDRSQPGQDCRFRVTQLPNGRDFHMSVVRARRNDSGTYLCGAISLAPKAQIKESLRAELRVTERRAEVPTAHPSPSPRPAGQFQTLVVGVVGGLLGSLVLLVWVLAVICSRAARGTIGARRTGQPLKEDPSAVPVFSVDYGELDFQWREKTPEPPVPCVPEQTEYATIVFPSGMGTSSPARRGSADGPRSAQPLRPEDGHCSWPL

Point of comparison: CC(C)C[C@@H]1NC(=O)[C@H](CCN)NC(=O)[C@@H](CC(C)C)NC(=O)[C@H](C)N(C)C(=O)[C@H](CCCNC(=N)N)NC(=O)[C@H](Cc2ccc(-c3ccccc3)cc2)NC(=O)[C@H](C(C)C)NC(=O)[C@H](Cc2c[nH]c3ccccc23)NC(=O)[C@H](CC(=O)O)NC(=O)[C@H](Cc2ccc(O)cc2)NC(=O)[C@H](CC(N)=O)NC(=O)CSC[C@@H](C(=O)N[C@@H](C)C(N)=O)NC(=O)[C@H]([C@@H](C)O)NC(=O)[C@H](C(C)C)NC1=O [Compound 1189] ({CH2CO}-NYDWV[Bip]R[NMeA][dL][Dab]LVTCA-NH2; thioether N-14), IC50 0.03 µM. Against it:
- CC(C)C[C@@H]1NC(=O)[C@H](CCN)NC(=O)[C@@H](CC(C)C)NC(=O)[C@H](C)N(C)C(=O)[C@H](CCCNC(=N)N)NC(=O)[C@H](Cc2ccc(-c3ccccc3)cc2)NC(=O)[C@H](C(C)C)NC(=O)[C@H](Cc2c[nH]c3ccccc23)NC(=O)[C@H](CC(=O)O)NC(=O)[C@H](Cc2ccc(O)cc2)NC(=O)[C@H](CC(N)=O)NC(=O)CSC[C@@H](C(=O)N[C@@H](CO)C(N)=O)NC(=O)[C@H]([C@@H](C)O)NC(=O)[C@H](C(C)C)NC1=O [Compound 1179] ({CH2CO}-NYDWV[Bip]R[NMeA][dL][Dab]LVTCS-NH2; thioether N-14) — 2.3-fold higher, 0.07 µM
- CC(C)C[C@@H]1NC(=O)[C@H](CCCNC(=N)N)NC(=O)[C@@H](CC(C)C)NC(=O)[C@H](C)N(C)C(=O)[C@H](CCCNC(=N)N)NC(=O)[C@H](Cc2ccc(-c3ccccc3)cc2)NC(=O)[C@H](C(C)C)NC(=O)[C@H](Cc2c[nH]c3ccccc23)NC(=O)[C@H](CC(=O)O)NC(=O)[C@H](Cc2ccc(O)cc2)NC(=O)[C@H](CC(N)=O)NC(=O)CSC[C@@H](C(=O)NCC(N)=O)NC(=O)[C@H]([C@@H](C)O)NC(=O)[C@H](C(C)C)NC1=O [Compound 1244] ({CH2CO}-NYDWV[Bip]R[NMeA][dL]RLVTCG-NH2; thioether N-14) — within 1.5-fold, 0.04 µM
- COc1cccc(C[C@@H]2NC(=O)[C@H](Cc3ccccc3)NC(=O)CSC[C@@H](C(=O)N[C@@H](C)C(N)=O)NC(=O)[C@H](CO)NC(=O)[C@H](C(C)C)NC(=O)[C@H](CC(C)C)NC(=O)[C@H](CC(N)=O)NC(=O)[C@@H](C)NC(=O)[C@H](C)N(C)C(=O)[C@H](C(C)C)NC(=O)[C@H](Cc3ccc(-c4ccccc4)cc3)NC(=O)[C@H](CC(C)C)NC(=O)[C@H](Cc3c[nH]c4ccccc34)NC(=O)[C@H](CC(=O)O)NC2=O)c1 [Compound 1732] ({CH2CO}-F[Phe(3-OMe)]DWL[Bip]V[NMeA][dA]NLVSCA-NH2; thioether N-14) — 3-fold lower, 0.01 µM
- CC(C)C[C@@H]1NC(=O)[C@H](CC(N)=O)NC(=O)[C@@H](CC(C)C)NC(=O)[C@H](C)N(C)C(=O)[C@H](CCCNC(N)=O)NC(=O)[C@H](Cc2ccc(-c3ccccc3)cc2)NC(=O)[C@H](C(C)C)NC(=O)[C@H](Cc2c[nH]c3ccccc23)NC(=O)[C@H](CC(=O)O)NC(=O)[C@H](Cc2ccc(O)cc2)NC(=O)[C@H](Cc2ccccc2)NC(=O)CSC[C@@H](C(=O)N[C@@H](C)C(=O)N[C@@H](CN)C(=O)O)NC(=O)[C@H](CO)NC(=O)[C@H](C(C)C)NC1=O [Compound 2004] ({CH2CO}-FYDWV[Bip][Cit][NMeA][dL]NLVSCA[Dap]-OH; thioether N-14) — 1.5-fold lower, 0.02 µM
- Cc1cccc(C[C@@H]2NC(=O)[C@H](CC(=O)O)NC(=O)[C@H](Cc3ccc(OCC(=O)O)cc3)NC(=O)[C@H](Cc3ccncc3)NC(=O)CSC[C@@H](C(=O)N[C@@H](CCN)C(N)=O)NC(=O)[C@H](CO)NC(=O)[C@H](C(C)(C)O)NC(=O)[C@H](CC3CCCCC3)NC(=O)[C@H](CCN)NC(=O)[C@@H](CC(C)C)NC(=O)[C@H](C)N(C)C(=O)[C@H](CCCNC(N)=O)NC(=O)[C@H](Cc3ccc(-c4ccccc4)cc3)NC(=O)[C@H](Cc3ccc(OCC(=O)O)cc3)NC2=O)c1 [Compound 2201] ({CH2CO}-[4Pal]Y(Carboxymethyl)D[Phe(3-Me)]Y(Carboxymethyl)[Bip][Cit][NMeA][dL][Dab][Cha][Val(3-OH)]SC[Dab]-NH2; thioether N-14) — 3-fold lower, 0.01 µM
- CC(C)C[C@@H]1NC(=O)[C@H](CCCN)NC(=O)[C@@H](CC(C)C)NC(=O)[C@H](C)N(C)C(=O)[C@H](CCCNC(=N)N)NC(=O)[C@H](Cc2ccc(-c3ccccc3)cc2)NC(=O)[C@H](C(C)C)NC(=O)[C@H](Cc2c[nH]c3ccccc23)NC(=O)[C@H](CC(=O)O)NC(=O)[C@H](Cc2cnc[nH]2)NC(=O)[C@H](Cc2cnc[nH]2)NC(=O)CSC[C@@H](C(=O)N[C@@H](C)C(N)=O)NC(=O)[C@H]([C@@H](C)O)NC(=O)[C@H](C(C)C)NC1=O [Compound 1136] ({CH2CO}-HHDWV[Bip]R[NMeA][dL][Orn]LVTCA-NH2; thioether N-14) — 7-fold higher, 0.21 µM
- CC(C)C[C@@H]1NC(=O)[C@H](CCCNC(=N)N)NC(=O)[C@@H](CC(C)C)NC(=O)[C@H](C)N(C)C(=O)[C@H](CCCNC(=N)N)NC(=O)[C@H](Cc2ccc(-c3ccccc3)cc2)NC(=O)[C@H](C(C)C)NC(=O)[C@H](Cc2c[nH]c3ccccc23)NC(=O)[C@H](CC(=O)O)NC(=O)[C@H](Cc2ccc(O)cc2)NC(=O)[C@H](CC(N)=O)NC(=O)CSC[C@@H](C(=O)N[C@@H](C)C(N)=O)NC(=O)[C@H](CO)NC(=O)[C@H](C(C)C)NC1=O [Compound 1033] ({CH2CO}-NYDWV[Bip]R[NMeA][dL]RLVSCA-NH2; thioether N-14) — the same, 0.03 µM
- CC[C@@H](C)[C@@H]1NC(=O)[C@H](Cc2ccc(-c3ccccc3)cc2)NC(=O)[C@H](CC(C)C)NC(=O)[C@H](Cc2c[nH]c3ccccc23)NC(=O)[C@H](CC(=O)O)NC(=O)[C@H](Cc2ccc(C(=O)O)cc2)NC(=O)[C@H](Cc2ccc(OCC(=O)O)cc2)NC(=O)CSC[C@@H](C(=O)N[C@@H](CCCCN)C(N)=O)NC(=O)[C@H](Cc2cnc[nH]2)NC(=O)C(C(C)C)NC(=O)[C@H](CC(C)C)NC(=O)[C@H](CC(N)=O)NC(=O)[C@@H](CC(C)C)NC(=O)[C@H](C)N(C)C1=O (stereo partly drawn) [Compound 2104] ({CH2CO}-Y(Carboxymethyl)[Phe(4-COOH)]DWL[Bip][aIle][NMeA][dL]NL[ξV]HCK-NH2; thioether N-14) — 1.7-fold higher, 0.05 µM
- CC(C)C[C@@H]1NC(=O)[C@H](Cc2c[nH]c3ccccc23)NC(=O)[C@H](CC(=O)O)NC(=O)[C@H](Cc2ccc(C(=O)O)cc2)NC(=O)[C@H](Cc2ccc(OCC(=O)O)cc2)NC(=O)CSC[C@@H](C(=O)N[C@@H](CCN)C(N)=O)NC(=O)[C@H](CO)NC(=O)[C@H](C(C)C)NC(=O)[C@H](CC2CCCCC2)NC(=O)[C@H](CCN)NC(=O)[C@@H](CC(C)C)NC(=O)[C@H](C)N(C)C(=O)[C@H](C(C)C)NC(=O)[C@H](Cc2ccc(-c3ccccc3)cc2)NC1=O [Compound 1909] ({CH2CO}-Y(Carboxymethyl)[Phe(4-COOH)]DWL[Bip]V[NMeA][dL][Dab][Cha]VSC[Dab]-NH2; thioether N-14) — 3-fold lower, 0.01 µM
- CC(C)C[C@@H]1NC(=O)[C@H](Cc2c[nH]c3ccccc23)NC(=O)[C@H](CC(=O)O)NC(=O)[C@H](Cc2ccc(OCC(=O)O)cc2)NC(=O)[C@H](Cc2ccccc2)NC(=O)CSC[C@@H](C(=O)N[C@@H](CC(N)=O)C(N)=O)NC(=O)[C@H](Cc2cnc[nH]2)NC(=O)[C@H](C(C)C)NC(=O)[C@H](CC(C)C)NC(=O)[C@H](CCN)NC(=O)[C@@H](CC(C)C)NC(=O)[C@H](C)N(C)C(=O)[C@H](C(C)C)NC(=O)[C@H](Cc2ccc(-c3ccccc3)cc2)NC1=O [Compound 2098] ({CH2CO}-FY(Carboxymethyl)DWL[Bip]V[NMeA][dL][Dab]LVHCN-NH2; thioether N-14) — 3-fold lower, 0.01 µM
